Data reported in patent EP0754455A1, “PHARMACEUTICAL COMPOSITIONS BASED ON AMINOMETHYLINDOLES AND THEIR THERAPEUTICAL APPLICATION AS NEUROPROTECTORS IN PARKINSON AND ALZHEIMER DISEASES” (CONSEJO SUPERIOR INVESTIGACIONES CIENTIFICAS (CSIC), priority 1995, dated 1996).

Tests used:
dopamine carrier = target: T1, dopamine carrier (Homo sapiens, UniProt Q01959); assay: Dopamine carrier inhibition in purified synaptosomes of human caudate; format: biochemical; conditions: human caudate synaptosomes, dopamine (DA) 0.1 µM; read-out: IC50(max)
T1 construct: This assay was carried out in purified synaptosomes of human caudate; from tissue; host or cells: post-mortem human caudate, purified synaptosomes
T1 sequence (Q01959 whole entry): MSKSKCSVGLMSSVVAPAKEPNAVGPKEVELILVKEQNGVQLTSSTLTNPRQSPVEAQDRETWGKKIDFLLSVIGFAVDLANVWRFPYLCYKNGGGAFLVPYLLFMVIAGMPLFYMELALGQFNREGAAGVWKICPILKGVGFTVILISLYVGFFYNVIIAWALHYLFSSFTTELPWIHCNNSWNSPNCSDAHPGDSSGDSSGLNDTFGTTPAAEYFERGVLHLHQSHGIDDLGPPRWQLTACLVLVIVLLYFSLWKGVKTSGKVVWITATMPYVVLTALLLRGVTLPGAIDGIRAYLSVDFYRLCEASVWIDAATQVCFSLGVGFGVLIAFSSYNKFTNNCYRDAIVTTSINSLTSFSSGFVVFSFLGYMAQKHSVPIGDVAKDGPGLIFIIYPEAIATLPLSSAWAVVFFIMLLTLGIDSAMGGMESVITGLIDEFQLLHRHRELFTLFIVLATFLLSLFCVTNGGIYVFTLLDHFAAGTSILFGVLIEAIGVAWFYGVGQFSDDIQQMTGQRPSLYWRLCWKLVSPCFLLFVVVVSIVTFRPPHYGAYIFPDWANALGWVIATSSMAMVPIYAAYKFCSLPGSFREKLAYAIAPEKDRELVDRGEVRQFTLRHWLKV
Method: This assay was carried out in purified synaptosomes of human caudate obtained using the same method as described by Rodríguez et al. 1987 Biochem Pharmac 36, 974-976.
The studies were carried out with the same inhibitors used in the rat tissue. The dopamine (DA) concentration was 0.1 µM, a value chosen from the kinetic constants obtained.

MAO-A [1] = target: T2, MAO-A (Homo sapiens, UniProt P21397); assay: MAO-A inhibition in homogenated human cerebral cortex; format: biochemical
T2 construct: performed using homogenated human cerebral cortex obtained from autopsies; from tissue; host or cells: post-mortem human cerebral cortex homogenate
T2 sequence (P21397 1-527): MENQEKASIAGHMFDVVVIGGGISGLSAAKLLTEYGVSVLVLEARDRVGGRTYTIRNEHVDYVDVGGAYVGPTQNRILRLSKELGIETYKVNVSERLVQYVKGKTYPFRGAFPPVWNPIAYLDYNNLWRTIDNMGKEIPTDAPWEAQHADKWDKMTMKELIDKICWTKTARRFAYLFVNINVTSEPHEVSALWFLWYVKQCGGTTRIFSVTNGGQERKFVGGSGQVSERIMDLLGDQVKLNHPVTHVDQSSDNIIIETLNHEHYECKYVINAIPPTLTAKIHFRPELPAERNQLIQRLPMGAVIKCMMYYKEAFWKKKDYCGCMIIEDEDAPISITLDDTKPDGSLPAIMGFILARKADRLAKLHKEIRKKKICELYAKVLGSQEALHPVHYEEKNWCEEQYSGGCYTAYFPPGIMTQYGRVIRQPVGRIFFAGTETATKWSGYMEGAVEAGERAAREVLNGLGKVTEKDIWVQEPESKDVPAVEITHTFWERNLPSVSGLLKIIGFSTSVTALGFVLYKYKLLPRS
From the text: They were provided by Dr. Fco Javier González Oliván (Forensic Anatomic Institute of the Hospital Clínico Provincial in Barcelona).

MAO-A [2] = target: T3, MAO-A (Rattus norvegicus, UniProt P21396); assay: Kinetic parameters of suicide-type inhibition, MAO-A; format: biochemical, Sprague-Dawley rat
T3 construct: human and rat tissue to obtain the isolated forms of monoamine oxidase A and B; from tissue
T3 sequence (P21396 1-526): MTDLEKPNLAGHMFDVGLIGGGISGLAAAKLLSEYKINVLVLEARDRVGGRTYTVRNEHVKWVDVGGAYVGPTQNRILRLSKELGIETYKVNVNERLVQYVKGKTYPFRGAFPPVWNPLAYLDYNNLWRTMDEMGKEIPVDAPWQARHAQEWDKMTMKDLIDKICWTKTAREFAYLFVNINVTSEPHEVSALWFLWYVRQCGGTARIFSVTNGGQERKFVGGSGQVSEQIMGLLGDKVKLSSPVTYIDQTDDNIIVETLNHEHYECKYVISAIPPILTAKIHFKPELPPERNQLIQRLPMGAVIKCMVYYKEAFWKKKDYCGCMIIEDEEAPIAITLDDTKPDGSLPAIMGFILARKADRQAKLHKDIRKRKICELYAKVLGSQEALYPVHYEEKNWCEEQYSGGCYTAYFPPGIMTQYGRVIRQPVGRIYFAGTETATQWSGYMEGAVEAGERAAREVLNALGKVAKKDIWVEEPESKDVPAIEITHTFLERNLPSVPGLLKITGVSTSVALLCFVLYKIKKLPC
From the text: Based on the apparent velocity constants of the first order (kapp) obtained for each inhibitor, calculations were made of the K1 and K^1c at (according to the method described by M. Avila et al. 1993, Biochem Pharmac 45, 2231-2237). K1 is the affinity constant of the first stage of the reaction and K1 MAO-A / K1 MAO-B the expression of the selectivity.
K^1cat is the velocity constant for the formation of the covalent irreversible complex during the second stage of the process. To compare the values of these constants towards the two forms of MAO, we express the inhibition efficacy as the ratio K^1cat/K1. The value of these constants (see Tables 2 and 3), is the result of three different experiments, with their corresponding SEM.

ibotenic acid = assay: Protection against the neurotoxicity of ibotenic acid (brain acetylcholine); format: in vivo, Sprague-Dawley rats; conditions: homogenised rat brain; 3 mg/Kg i.p. 2 h before intracerebroventricular ibotenic acid; ibotenic acid alone 3%; depending on the dose
Method: One group of Sprague-Dawley rats was treated with compound FA-73 (3 mg/Kg, i.p.) followed two hours later by an stereotaxic injection of ibotenic acid into the cerebral ventricles at a dose that would induce an Alzheimer type of pathology. After sacrificing the animals, determinations were made of the acetylcholine (AC) in the homogenised brains.

MAO-B = target: T4, MAO-B (Rattus norvegicus, UniProt P19643); assay: MAO-B inhibition, mitochondrial portion of rat (IC50, time dependence, irreversibility), substrate PEA; format: biochemical, Sprague-Dawley rat; conditions: for IC50: MAO-B (lines B..), substrate PEA, rat mitochondria
T4 construct: from tissue; host or cells: Sprague-Dawley rat liver, mitochondrial fraction
T4 sequence (P19643 1-520): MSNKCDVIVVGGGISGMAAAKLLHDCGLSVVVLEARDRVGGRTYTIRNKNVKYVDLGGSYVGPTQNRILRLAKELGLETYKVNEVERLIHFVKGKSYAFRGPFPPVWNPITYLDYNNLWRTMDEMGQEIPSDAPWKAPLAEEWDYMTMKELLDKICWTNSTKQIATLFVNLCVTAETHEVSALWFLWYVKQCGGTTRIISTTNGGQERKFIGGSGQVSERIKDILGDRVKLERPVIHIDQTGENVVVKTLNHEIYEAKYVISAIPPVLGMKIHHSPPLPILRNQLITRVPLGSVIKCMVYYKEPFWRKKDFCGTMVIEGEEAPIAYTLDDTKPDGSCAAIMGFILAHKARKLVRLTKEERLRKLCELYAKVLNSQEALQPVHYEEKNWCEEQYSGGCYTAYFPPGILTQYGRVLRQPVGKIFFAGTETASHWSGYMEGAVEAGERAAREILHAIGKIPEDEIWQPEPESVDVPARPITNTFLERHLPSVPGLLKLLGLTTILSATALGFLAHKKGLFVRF
Method: The mitochondrial portion of Sprague-Dawley rat was used to determine the MAO-A and MAO-B activity.
Determinations were made of the comparative MAO-A and MAO-B activity inhibition curves of the various compounds under study at time 0 and 30 min. by measuring the remaining activity to 5-HT and PEA as substrates.

In the case of `C#CCNCc1cc2cc(OCc3ccccc3)ccc2[nH]1` [FA-73], the IC50 (dopamine carrier) is reported as 360 nM, the IC50 (MAO-A [1]) is reported as 20000 nM and the Ki (MAO-A [2]; MAO-A (A..), affinity constant of the first stage, three experiments ± SEM, read-out: K1) is reported as 800 nM. The “K^1cat / K1(10^-3)” value (MAO-A [2]; MAO-A, inhibition efficacy) was 0.1 10^-3, the “K^1cat” value (MAO-A [2]; MAO-A, velocity constant for formation of the covalent irreversible complex, ± SEM) was 0.087 ± 0.006 min⁻¹ and the acetylcholine level (ibotenic acid) was “up to 85 % of the control”. For the same compound, the IC50 (MAO-B; IC50 0 min, 0 min incubation) was 100 nM, the IC50 (MAO-B; IC50 30 min., 30 min incubation) was 15 nM and the “dependence of the inhibition on the incubation time” value (MAO-B; MAO-B) was “drop in the formation of product as a function of the time of incubation”. For the same compound, the “irreversibility of the inhibition process” value (MAO-B; MAO-B, inhibitor concentrations close to the IC50) was “irreversibility”.
